# Experiments:
# [1] = target: T1, human vasopressin V1a receptor subtype (Homo sapiens, UniProt P37288); assay: Vasopressin binding in CHO cell membranes expressing human vasopressin V1a subtype receptors ([3H]Manning ligand); conditions: for inhibition at 0.1 µM / V1a % inhibition @ 100 nM: 100 nM, value without parentheses; for IC50: value in parentheses
# T1 construct: host or cells: CHO cells, stably transfected (pZeoSV vector for the Thibonnier line); membranes
# Source text: Vasopressin Binding in Chinese Hamster Ovary Cell Membranes Expressing Human Vasopressin V1a Subtype Receptors
# Chinese hamster ovary cells (CHO cells) stably transfected with the human vasopressin V1a subtype receptors were either obtained from Biosignal Inc., 1744 rue Williams, Montreal, Quebec, Canada or obtained from M. Thibonnier, Case Western Reserve University School of Medicine, Cleveland, Ohio.
# A. Passaging and Amplification of Cells:
# CHO cells transfected with the human vasopressin V1a subtype receptors obtained from M. Thibonnier (pZeoSV vector) are allowed to grow to confluency (approx. >90%) in T-150 flasks under sterile conditions, in a cell culture medium of F-12 Nutrient Mixture (HAM) with L-glutamine (Gibco Cat. #11765-054) containing 15 mM HEPES (Gibco Cat. #15630-080), 1% antibiotic/antimycotic (add 5 mL 100×, Gibco Cat. #15240-062 per 500 mL F-12), 250 μg/mL Zeocin (add 1.25 mL of 100 mg/mL Invitrogen R-250-01 per 500 mL F-12) and 10% Fetal Bovine Serum (Qualified, heat inactivated, Gibco Cat. #16140-063). The medium is removed by aspiration and the cells are washed with 10 mL of Hank's Balanced Salt solution (Gibco Cat. #14175-095). The salt solution is removed by aspiration and the cells are trypsinized with 5 mL of trypsin-EDTA (0.05% trypsin, 0.53 mM EDTA-4Na, Gibco Cat. #25300-070) for 1 min. The trypsin is removed by aspiration and the cells dislodged by tapping. Cell Culture medium (eg, 30 mL for 1:30 split) is immediately added and mixed well to inactivate trypsin. 1 mL of detached cells is added to new culture flasks containing fresh cell culture medium (eg, into 25 mL per T-150 flask), and mixed gently. The cells are incubated at 37° C. in 5% CO2. The medium is changed at 3 to 4 days interval (or as appropriate). The cells grow to confluency (approx. >75%-95%) within 7-8 days. All steps are done under sterile conditions.
# The cells are washed twice gently with Hank's Balanced Salt solution (e.g,. use 10 mL per T-150 flask). The excess is removed and the cells are bathed for 15-30 min. in an enzyme-free Cell Dissociation Buffer (e.g. use 8 mL Hank's Based, Gibco Cat. #13150-016 per T-150 flask) until the cells are loosened. The contents are transferred to centrifuge tubes (50 mL size) kept in ice bath. All subsequent steps are done at 4° C. The tubes are centrifuged at 300×g for 15 min (1380 rpm on SORVAL, Model RT6000D, using rotor for 50 mL tubes). The supernatant is discarded and the cells suspended in homogeneizing buffer(10 mM Tris-HCl containing 0.25 M sucrose and 1 mM EDTA, pH 7.4) ensuring that the volume of the buffer is about ten times the volume of the cell pellet. The cells are pooled into a centrifuge tube (50 mL) and homogenized with Polytron at setting 6 for 10 sec. The homogenate is transferred into a Potter-Elvjehm homogenizer and homogenized with 3 strokes. The homogenate is centrifuged at 1500×g for 10 min at 4° C. (3100 rpm using SORVAL, model RT6000D, using rotor for 50 mL tubes). The pellet is discarded. The supernatant is centrifuged at 100,000×g for 60 min. at 4° C. (Beckman L8-80M ultracentrifuge; spin at 37,500 rpm with rotor type 70 Ti for 50 mL tubes; 38,000 rpm with type 80Ti for 15 mL tubes; or 35,800 rpm with rotor type 45Ti). The supemantant is discarded and the pellet suspended in 3 to 4 mL of Tris buffer (50 mM TRIS-HCl, pH 7.4). The protein content is estimated by the Bradford or Lowry method. The volume of the membrane suspension is adjusted with the membrane buffer (50 mM Tris-HCl containing 0.1% BSA and 0.1 mM PMSF) to give 3.0 mg/mL (or as appropriate) of protein. The membranes are aliquoted and stored at −70° C.
# C. Radioligand Binding Assay: […]
# T1 sequence (P37288 whole entry): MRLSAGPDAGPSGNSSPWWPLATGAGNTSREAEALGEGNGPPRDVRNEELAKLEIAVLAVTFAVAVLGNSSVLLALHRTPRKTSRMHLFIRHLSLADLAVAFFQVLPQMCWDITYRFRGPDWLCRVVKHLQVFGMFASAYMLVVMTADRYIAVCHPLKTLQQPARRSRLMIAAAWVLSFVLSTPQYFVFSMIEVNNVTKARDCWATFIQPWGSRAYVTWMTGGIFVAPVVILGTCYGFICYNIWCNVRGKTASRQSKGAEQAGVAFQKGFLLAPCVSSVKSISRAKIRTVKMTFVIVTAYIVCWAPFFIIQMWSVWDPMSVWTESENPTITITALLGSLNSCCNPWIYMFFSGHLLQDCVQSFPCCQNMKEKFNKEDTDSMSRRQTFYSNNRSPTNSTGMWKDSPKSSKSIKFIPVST
inhibition at 0.1 µM [1] [%],IC50 [1] [nM],SMILES,other results
6,,"CCOC(=O)[C@H](Cc1ccc(O)cc1)NC(=O)c1ccc2n1Cc1ccccc1N(C(=O)c1ccc(C3=CCCCC3)c(C)c1)C2 [Example 9, (2S)-2-{[10-(4-Cyclohex-1-en-1-yl-3-methyl-benzoyl)-10,11-dihydro-5H-pyrrolo[2,1-c][1,4]benzodiazepine-3-carbonyl]-amino}-3-(4-hydroxy-phenyl)-propionic acid ethyl ester]",
8,,"Cc1cc(C(=O)N2Cc3ccc(C(=O)O)n3Cc3ccccc32)ccc1C1=CCCCC1 [Example 5E, 10-(4-Cyclohex-1-en-1-yl-3-methyl-benzoyl)-10,11-dihydro-5H-pyrrolo[2,1-c][1,4]benzodiazepine-3-carboxylic acid]",
62,,"Cc1cc(C(=O)N2Cc3ccc(C(=O)N(C)C[C@@H]4OC(=O)O[C@H]4[C@H](O)[C@H]4COC(=O)O4)n3Cc3ccccc32)ccc1C1=CCCCC1 [Example 7, 10-(4-Cyclohex-1-en-1-yl-3-methylbenzoyl)-N-[((4S,5S)-5-{(R)-hydroxy[(4R)-2-oxo-1,3-dioxolan-4-yl]methyl}-2-oxo-1,3-dioxolan-4-yl)methyl]-N-methyl-10,11-dihydro-5H-pyrrolo[2,1-c][1,4]benzodiazepine-3-carboxamide]",melting point: 162 to 168 °C
,,"Cc1cc(C(=O)N2Cc3ccc(C(=O)N(CCO)CCO)n3Cc3ccccc32)ccc1C1=CCCc2ccccc21 [Example 16, {10-[4-(3,4-Dihydro-naphthalen-1-yl)-3-methyl-benzoyl]-10,11-dihydro-5H-pyrrolo[2,1-c][1,4]benzodiazepin-3-yl}-3-carboxylic acid bis-(2-hydroxy-ethyl)-amide]",V1a % inhibition @ 100 nM [1]: 6%
16,,"COC(=O)[C@@H](CO)NC(=O)c1ccc2n1Cc1ccccc1N(C(=O)c1ccc(C3=CCCCC3)c(C)c1)C2 [Example 12, (2R)-2-{[10-(4-Cyclohex-1-en-1-yl-3-methyl-benzoyl)-10,11-dihydro-5H-pyrrolo[2,1-c][1,4]benzodiazepine-3-carbonyl]-amino}-3-hydroxy-propionic acid methyl ester]",
6,,"Cc1cc(C(=O)N2Cc3ccc(C(=O)N[C@H](CO)C(=O)O)n3Cc3ccccc32)ccc1C1=CCCCC1 [Example 14, (2R)-2-{[10-(4-Cyclohex-1-en-1-yl-3-methyl-benzoyl)-10,11-dihydro-5H-pyrrolo[2,1-c][1,4]benzodiazepine-3-carbonyl]-amino}-3-hydroxy-propionic acid]",
,,"Cc1cc(C(=O)N2Cc3ccc(C(=O)N4CCN(CCO)CC4)n3Cc3ccccc32)ccc1C1=CCCCC1 [Example 17, {10-[4-(1-Cyclohex-1-en-1-yl)-3-methylbenzoyl]-10,11-dihydro-5H-pyrrolo[2,1-c][1,4]benzodiazepin-3-yl}[4-(2-hydroxyethyl)-1-piperazinyl]methanone]",V1a % inhibition @ 100 nM [1]: 31%
,315,"COC[C@@H](OC)[C@@H](OC)[C@H](OC)[C@H](CN(C)C(=O)c1ccc2n1Cc1ccccc1N(C(=O)c1ccc(C3=CCCCC3)c(C)c1)C2)OC [Example 8, 10-(4-Cyclohex-1-en-1-yl-3-methylbenzoyl)-N-methyl-N-[(2S,3R,4R,5R)-2,3,4,5,6-pentamethoxyhexyl]-10,11-dihydro-5H-pyrrolo[2,1-c][1,4]benzodiazepine-3-carboxamide]",melting point: 68 to 83 °C
,62.4,"Cc1cc(C(=O)N2Cc3ccc(C(=O)N(C)C[C@H](O)[C@H]4OC(=O)O[C@@H]4[C@H](O)CO)n3Cc3ccccc32)ccc1C1=CCCCC1 [Example 6, 10-(4-Cyclohex-1-en-1-yl-3-methylbenzoyl)-N-((2S)-2-{(4R,5R)-5-[(1R)-1,2-dihydroxyethyl]-2-oxo-1,3-dioxolan-4-yl}-2-hydroxyethyl)-N-methyl-10,11-dihydro-5H-pyrrolo[2,1-c][1,4]benzodiazepine-3-carboxamide]",melting point: 166 to 175 °C
,879,"COc1cc(C2=CCCCC2)c(Cl)cc1C(=O)N1Cc2ccc(C(=O)N(C)C[C@H](O)[C@@H](O)[C@H](O)[C@H](O)CO)n2Cc2ccccc21 [Example 1, 1-[[[10-[5-Chloro-4-(1-cyclohex-1-en-1-yl)-2-methoxybenzoyl]-10,11-dihydro-5H-pyrrolo[2,1-c][1,4]benzodiazepin-3-yl]carbonyl]methylamino]-1-deoxy-D-glucitol]",melting point: 72 to 73 °C
-2,,"Cc1cc(C(=O)N2Cc3ccc(C(=O)O)n3Cc3ccccc32)ccc1C1=CCCc2ccccc21 [Example 15B, 10-[4-(3,4-Dihydro-naphthalen-1-yl)-3-methyl-benzoyl]-10,11-dihydro-5H-pyrrolo[2,1-c][1,4]benzodiazepine-3-carboxylic acid]",
5,,"Cc1cc(C(=O)N2Cc3ccc(C(=O)N[C@@H](CO)C(=O)O)n3Cc3ccccc32)ccc1C1=CCCCC1 [Example 13, (2S)-2-{[10-(4-Cyclohex-1-en-1-yl-3-methyl-benzoyl)-10,11-dihydro-5H-pyrrolo[2,1-c][1,4]benzodiazepine-3-carbonyl]-amino}-3-hydroxy-propionic acid]",
6,,"COC(=O)[C@H](CO)NC(=O)c1ccc2n1Cc1ccccc1N(C(=O)c1ccc(C3=CCCCC3)c(C)c1)C2 [Example 11, (2S)-2-{[10-(4-Cyclohex-1-en-1-yl-3-methyl-benzoyl)-10,11-dihydro-5H-pyrrolo[2,1-c][1,4]benzodiazepine-3-carbonyl]-amino}-3-hydroxy-propionic acid methyl ester]",
,646,Cc1cc(C(=O)N2Cc3ccc(C(=O)N(C)C[C@H](O)[C@@H](O)[C@H](O)[C@H](O)CO)n3Cc3ccccc32)ccc1C1=CCCc2ccccc21 [Example 15],
0,,"COc1cc(C2=CCCCC2)c(Cl)cc1C(=O)N1Cc2ccc(C(=O)O)n2Cc2ccccc21 [Example 1G, 10-(5-Chloro-4-cyclohex-1-en-1-yl-2-methoxybenzoyl)-10,11-dihydro-5H-pyrrolo[2,1-c][1,4]benzodiazepine-3-carboxylic acid]",
,2190,"COC[C@@H](OC)[C@@H](OC)[C@H](OC)[C@H](CN(C)C(=O)c1ccc2n1Cc1ccccc1N(C(=O)c1cc(Cl)c(C3=CCCCC3)cc1OC)C2)OC [Example 2, 10-(5-Chloro-4-cyclohex-1-en-1-yl-2-methoxybenzoyl)-N-methyl-N-[(2S,3R,4R,5R)-2,3,4,5,6-pentamethoxyhexyl]-10,11-dihydro-5H-pyrrolo[2,1-c][1,4]benzodiazepine-3-carboxamide]",
,,Cc1cc(C(=O)N2Cc3ccc(C(=O)N[C@@H](Cc4ccc(O)cc4)C(=O)O)n3Cc3ccccc32)ccc1C1=CCCCC1 [Example 10],V1a % inhibition @ 100 nM [1]: 14%
,182,Cc1cc(C(=O)N2Cc3ccc(C(=O)N(C)C[C@H](O)[C@@H](O)[C@H](O)[C@H](O)CO)n3Cc3ccccc32)ccc1C1=CCCCC1 [Example 5],
,,"Cc1cc(C(=O)N2Cc3ccc(C(=O)C(Cl)(Cl)Cl)n3Cc3ccccc32)ccc1C1=CCCCC1 [Example 5D, 2,2,2-Trichloro-1-[10-(4-cyclohex-1-en-1-yl-3-methyl-benzoyl)-10,11-dihydro-5H-pyrrolo[2,1-c][1,4]benzodiazepin-3-yl]-methanone]",V1a % inhibition @ 100 nM [1]: 0%
